Experiments:
[1] = biological target: T1, NMDA receptor complex ([3H]TCP binding) (Rattus norvegicus, UniProt P35439); assay: Assay B: TCP Modulation Assay (stimulation of [3H]TCP binding to synaptic plasma membranes); format: biochemical
T1 construct: Triton X-100 washed synaptic plasma membranes (SPM) prepared from rat forebrain; from tissue; host or cells: rat forebrain synaptic plasma membranes (male Sprague-Dawley, 30-45 days old), Triton X-100 washed
Experimental: [3H]TCP binding was performed using Triton X-100 washed synaptic plasma membranes (SPM) prepared from rat forebrain (30-45 day old, male SpragueDawley; Sasco, St. Charles, Mo.) as described previously [J. W. Thomas, W. F. Hood, J. B. Monahan, P. C. Contreras and T. L. O'Donohue, Brain Res., 442, 396-398 (1988)]. […] The samples were then filtered through glass fiber filters (Schleicher and Schuell #32) which were pretreated with 0.05% (v/v) polyethylenimine. The filters were washed and the radioactivity quantitated by liquid scintillation spectrometry. […] The EC50 values for the stimulation of [3H]TCP binding were determined using a four parameter logistic regression analysis.

[2] = test system: implicit memory (priming) in Alzheimer patients; assay: Assay C: Implicit Memory Paradigm (word identification test, priming) in Alzheimer patients; format: in vivo, human; details: 15 mg twice daily
Excerpt: In this test, subjects identify words presented in a visually degraded or masked format in which only parts of each letter are shown. Subjects view several lists of these degraded words over a period of three days, some of which are repeated from day-to-day and some that are new. Learning, or what is referred to as “priming”, is shown on this test when subjects identify a larger number of repeated or old words than new words. […] The diagnosis of probable Alzheimer's disease was made according to the criteria defined by the National Institute on Neurological Disorders and Stroke Work Group [G. McKhann et al, Neurology, 34, 939-944 (1984)]. This diagnosis was based on clinical evaluation that included neuropsychological assessment, laboratory blood screening, neurolgical examination, and either a CT or MRI scan. The criteria for entry into the study was Mini-mental State Examination score between 12 and 24 inclusive [M. Folstein et al, J. Psych. Res., 12, 189-198 (1975)], Global Deterioration Scale score between 3 and 5 inclusive [B. Reisberg et al, Am. J. Psych., 139, 1136-1139 (1982)], Modified […], ischemic score of 4 or less [G. W. Small et al, J. Clin. Psych., 46, 514-517 […]], and Hamilton Psychiatric Rating Scale for Depression score of 17 or less [M. Hamilton, Neurology and Neurosurgery, 23, 56-62 (1960)]. Patients with medical, neurological, or psychiatric illnesses other than Alzheimer's disease that could account for the abnormal mental status were excluded. […] The eligibility of patients was assessed during a 28-day period before the study began. […] All unused medication was returned and counted to check for compliance in taking the drug. […] The total increase in priming was calculated by first deriving the amount of priming that occurred on each trial (i.e., difference in the proportion of old and new words identified). […] Priming is not calculated on trial 1 because from the patient's perspective there are no old words on trial 1; the words begin to repeat on the second trial.

[3] = test system: recognition memory and attention in Alzheimer patients; details: Alzheimer's disease patients, Searle Protocol NC6-93-06-009; cited from earlier work
[4] = oral, tenth week of treatment, Alzheimer patients

Row | SMILES | effect on glycine stimulation of [3H]TCP binding ([1]; in the presence of glycine (0.1-0.6 μM)) | patients who improved their priming scores from trial 2 to trial 9 [2, 4] | total increase in priming vs placebo (post-hoc Scheffe test) [2, 4] | linear trend in priming across trials ([2]; trials 2 to 9, Alzheimer patients) | performance on recognition memory and attentional tests [3] | Kd ([1]; basal conditions)
1 | NC1CONC1=O (single isomer, unassigned) [D-cycloserine, 4-amino-3-isoxazolidone] | reduces the maximal level of glycine stimulation | 68% | significant difference in performance | significant linear trend across trials | did not improve performance | 
2 | c1csc(C2(N3CCCCC3)CCCCC2)c1 [[3H]TCP] |  |  |  |  |  | 44 nM
